Experimental findings from patent publication US12551532B2, “Long-acting amylin receptor agonists and uses thereof” (Eli Lilly and Company, priority 2021, dated 2026) are described below.

Starred links: 1 amine or outer side, 2 acyl side, 3 side chain; linkers in the order of their positions; H or OH if unused. Positions of bridges follow the written chain, without caps; N, C: chain ends. Non-standard residues stand in square brackets, D forms with d. Residues, ends and D or L forms follow the SMILES beside them. Groups on a side chain read outwards from the residue. *: point of attachment. C20 diacid = O=C(O)CCCCCCCCCCCCCCCCCCC(=O)*; γGlu = O=C(O)[C@H](CCC(=O)[*:2])N[*:1]; αMeF = C[C@](N)(Cc1ccccc1)C(=O)O; NMeD = CN[C@@H](CC(=O)O)C(=O)O; NMeN = CN[C@@H](CC(N)=O)C(=O)O; Orn = NCCC[C@H](N)C(=O)O; CH2 = C([*:1])[*:2]

The target in data set [1] is T1, human calcitonin receptor (hCTR) (Homo sapiens, UniProt P30988).
T1 construct: expressed in transfected cells; host or cells: membranes of UM-UC-3 (UMUC3) cells stably expressing human CTa
T1 sequence (P30988 25-474): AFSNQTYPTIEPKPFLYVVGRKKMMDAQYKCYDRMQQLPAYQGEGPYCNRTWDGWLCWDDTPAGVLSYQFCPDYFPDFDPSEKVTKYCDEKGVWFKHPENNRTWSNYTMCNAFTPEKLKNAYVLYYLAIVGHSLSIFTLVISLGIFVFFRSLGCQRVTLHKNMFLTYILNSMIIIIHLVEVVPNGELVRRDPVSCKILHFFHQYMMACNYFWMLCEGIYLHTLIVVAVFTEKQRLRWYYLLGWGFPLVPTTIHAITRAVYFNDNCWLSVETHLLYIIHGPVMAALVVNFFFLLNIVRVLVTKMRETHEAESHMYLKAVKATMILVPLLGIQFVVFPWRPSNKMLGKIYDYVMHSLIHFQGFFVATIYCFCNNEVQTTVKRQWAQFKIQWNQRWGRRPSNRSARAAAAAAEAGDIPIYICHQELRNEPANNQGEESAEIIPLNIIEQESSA
Description: hCTR competitive radioligand binding filter assay (125I-hCT). Particulars: ± SE; membranes of hCTR overexpressing cells. The procedure:
The equilibrium dissociation constants (Kd) for the various receptor/radioligand interactions are determined from saturation binding analysis using the same reagents and buffers as described below for compound testing.
The receptor binding affinity (Ki) of rAMY, hCT, and hAMY agonist peptides on hCTR membranes is determined from a competitive radioligand binding filter assay.

The nature of data set [2]: Pharmacokinetics in male Sprague Dawley rats. The format is in vivo. The settings on record: single SC 30 nmol/kg, mean. The procedure: The pharmacokinetics of Compound II (SEQ ID NO:2), Compound IV (SEQ ID NO:4), Compound VI (SEQ ID NO:6), and Compound VIII (SEQ ID NO:8) are evaluated following a single subcutaneous administration of 30 nmol/kg to male Sprague Dawley rats. Blood samples are collected at 1, 3, 6, 12, 24, 48, 72, 96 hours post SC dose. The resulting individual plasma concentrations are used to calculate pharmacokinetic parameters. Peptide plasma (K3EDTA) concentrations are determined using a qualified LC/MS method that measured the intact mass of the peptides. Each peptide and an analog as an internal standard are extracted from plasma. A high resolution Thermo Q-Exactive is used for LC/MS detection.

A further data set concerns human dendritic cells. The data set is classed as cell-based. The procedure:
MAPPS profiles the MHC-II presented peptides on human dendritic cells treated with tested molecules. CD14+ cells, isolated from the PBMCs of normal human donors, are cultured and differentiated into immature DCs by incubation with IL-4 and GM-CSF. On day 4, culture media is replaced with fresh media containing tested molecules. On day 5, LPS is added to transform the cells into mature DCs. On day 6, cells are lysed in RIPA buffer with protease inhibitors. Immunoprecipitation of MHC-II complexes are performed using biotinylated anti-MHC-II antibody coupled to streptavidin beads. The bound complex is eluted and filtered. The isolated MHC-II peptides are analyzed by a mass spectrometer. Peptide identifications are generated by an internal proteomics pipeline using search algorithms with no enzyme and a bovine/human database with test sequences appended to the database. A KNIME workflow is used to process the identification files from the samples. Peptides identified from the test articles are aligned against the parent sequence of the test molecule. The output is used to determine the percentage of donors displaying MHC-II peptides from regions of the test molecule. Compound II, Compound IV, Compound VI, Compound VIII, a compound representative of U.S. Pat. No. 9,023,789 (hereinafter “Compound '789”), and Pramlintide are tested in the MAPPs assay.

For data set [3], the system named is pre-existing antibodies (ADA) in normal human serum. Description: Pre-existing reactivity (ACE assay format). Particulars: >50 donors; treatment-naive normal human serum. The method, then: This assay assesses the presence of pre-existing antibodies (ADA) against the tested molecules in treatment-naive normal human serum (NHS). Diluted NHS is incubated overnight on a Pierce Streptavidin plate coated with biotinylated tested molecules. On the following day, the captured binding proteins are acid eluted, hard-coated to a Mesoscale (MSD) plate, and detected with a combination of biotin-labeled molecule and ruthenium-labeled streptavidin. If anti-drug antibodies are present, they will bind the labeled drug and the resulting signal is referred to as Tier 1 signal (expressed as electrochemiluminescence). This signal is confirmed in Tier 2 by adding excess unlabeled tested molecule in the detection step, which results in the suppression of the Tier 1 signal. The presence of pre-existing anti-drug antibodies is expressed as magnitude of the 90th percentile of Tier 2 inhibition. The 90th percentile of Tier 2 inhibition, is a statistical tool to assess the magnitude of specificity of Tier 1 reactivity. This 90th percentile is used to rank molecules in terms of ADA risk.

What is called Ki is the dissociation constant of the complex between target and ligand, obtained from inhibition or displacement. By Tmax is commonly meant the time at which the peak concentration occurs. As for `CC(C)C[C@H](NC(=O)[C@H](CCCN)NC(=O)CNC(=O)[C@@H](NC(=O)[C@H](C)NC(=O)[C@@H]1CSCSC[C@H](NC(=O)CC[C@H](N)C(=O)O)C(=O)N[C@@H](CC(N)=O)C(=O)N[C@@H]([C@@H](C)O)C(=O)N[C@@H](C)C(=O)N[C@@H]([C@@H](C)O)C(=O)N1)[C@@H](C)O)C(=O)N[C@@H](C)C(=O)N[C@@H](CCC(=O)O)C(=O)N[C@@](C)(Cc1ccccc1)C(=O)N[C@@H](CC(C)C)C(=O)N[C@H](C(=O)N[C@@H](CCCNC(=N)N)C(=O)N[C@@H](CO)C(=O)N[C@@H](CO)C(=O)N[C@@H](CC(N)=O)C(=O)N(C)[C@@H](CC(N)=O)C(=O)N[C@@H](Cc1ccccc1)C(=O)NCC(=O)N1CCC[C@H]1C(=O)N[C@@H](CCCCNC(=O)CC[C@H](NC(=O)CC[C@H](NC(=O)CCCCCCCCCCCCCCCCCCC(=O)O)C(=O)O)C(=O)O)C(=O)N[C@@H](CC(C)C)C(=O)N1CCC[C@H]1C(=O)N1CCC[C@H]1C(=O)N[C@H](C(=O)N[C@@H](CCC(=O)O)C(=O)N[C@H](C(=O)NCC(=O)N[C@@H](CO)C(=O)N[C@@H](CC(N)=O)C(=O)N[C@H](C(=O)N[C@@H](Cc1ccc(O)cc1)C(N)=O)[C@@H](C)O)C(C)C)[C@@H](C)O)C(C)C` [Compound II] (γGlu-CNTATCATG[Orn]LAE[αMeF]LVRSSN[NMeN]FGPK([γGlu-γGlu-C20 diacid])LPPTEVGSNTY-NH2; linker 1-6 via CH2), in data set [1], the Ki is 202 ± 45 nM. In addition, the Tmax in data set [2] (rat, plasma, n = 3) was 24 h. In addition, in data set [2] (n = 3), the AUCINF/D is 473 ± 63.8 hr * kg * nmol/L/nmol and the Cmax/D is recorded as 4.9 ± 0.9 kg * nmol/L/nmol. Also, in the data set on human dendritic cells, the “MAPPS Assay donors displayed peptides” value is on record as “no peptides”, the “MAPPS Assay immunogenicity risk” value is given as “Low Risk” and the “peptides displayed on MHC-II complexes” value is reported as “no peptides displayed on MHC-II complexes”. For the same compound, the “Pre-existing Reactivity 90th percentile T2 inhibition” value in data set [3] was 48.8%.
What is called CL/F is the apparent clearance, not corrected for the fraction that reaches the circulation. Take `CC(C)C[C@H](NC(=O)[C@H](CCCN)NC(=O)CNC(=O)[C@@H](NC(=O)[C@H](C)NC(=O)[C@@H]1CSCSC[C@H](NC(=O)CC[C@H](N)C(=O)O)C(=O)N[C@@H](CC(N)=O)C(=O)N[C@@H]([C@@H](C)O)C(=O)N[C@@H](C)C(=O)N[C@@H]([C@@H](C)O)C(=O)N1)[C@@H](C)O)C(=O)N[C@@H](C)C(=O)N[C@@H](CCC(=O)O)C(=O)N[C@@](C)(Cc1ccccc1)C(=O)N[C@@H](CC(C)C)C(=O)N[C@H](C(=O)N[C@@H](CCCNC(=N)N)C(=O)N[C@@H](CO)C(=O)N[C@@H](CO)C(=O)N[C@@H](CC(N)=O)C(=O)N(C)[C@@H](CC(=O)O)C(=O)N[C@@H](Cc1ccccc1)C(=O)NCC(=O)N1CCC[C@H]1C(=O)N[C@@H](CCCCNC(=O)CC[C@H](NC(=O)CC[C@H](NC(=O)CCCCCCCCCCCCCCCCCCC(=O)O)C(=O)O)C(=O)O)C(=O)N[C@@H](CC(C)C)C(=O)N1CCC[C@H]1C(=O)N1CCC[C@H]1C(=O)N[C@H](C(=O)N[C@@H](CCC(=O)O)C(=O)N[C@H](C(=O)NCC(=O)N[C@@H](CO)C(=O)N[C@@H](CC(N)=O)C(=O)N[C@H](C(=O)N[C@@H](Cc1ccc(O)cc1)C(N)=O)[C@@H](C)O)C(C)C)[C@@H](C)O)C(C)C` [Compound IV, γE-CNTATCATG-Orn-LAE-αMeF-LVRSSN-NMeD-FGPKLPPTEVGSNTY-NH2] (γGlu-CNTATCATG[Orn]LAE[αMeF]LVRSSN[NMeD]FGPK([γGlu-γGlu-C20 diacid])LPPTEVGSNTY-NH2; linker 1-6 via CH2): the Ki in data set [1] was 665 ± 113 nM. Besides, in data set [2] (rat, plasma, n = 3), the CL/F is 1.8 mL/h/kg and the Tmax is 20 ± 6.9 h. Further, the half-life in data set [2] (rat, plasma, n = 3, read-out: T l/2 (converted)) is 66.9 ± 27.6 h. In data set [2] (n = 3), this compound registered an AUCINF/D of 551 ± 27.1 hr * kg * nmol/L/nmol and a Cmax/D of 5.5 ± 2.1 kg * nmol/L/nmol. In the data set with human dendritic cells, the “MAPPS Assay donors displayed peptides” value is recorded as “no peptides”, the “MAPPS Assay immunogenicity risk” value was “Low Risk” and the “peptides displayed on MHC-II complexes” value is “no peptides displayed on MHC-II complexes”. Also, the “Pre-existing Reactivity 90th percentile T2 inhibition” value in data set [3] was determined as 33.2%.
